# Assay results taken from patent US20230382940A1, “ANTIVIRAL COMPOUNDS AND METHODS OF MAKING AND USING THE SAME” (Gilead Sciences, Inc., priority 2022, published 2023).
# pEC50: −log10 of the molar value.
# Assays:
# [1] = test system: Human Rhinovirus 16 (HRV16); assay: H1-HeLa HRV-CTG 384-well assay, HRV16, Example X; type: cell-based; settings: Rhinovirus A, 96 h; H1-HeLa cells, HRV16 MOI 0.25, 4 days, Celltiter-Glo; read-out: EC50 H1-HeLa_HRV 16_HRV-CTG 384-well Assay (per Ex. X)
# Outline: (§1)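 H1-HeLa cells (5,000/well, DMEM 2% FBS) infected with HRV1B, HRV14 or HRV16 at MOI 0.5, 1.0 and 0.25 respectively, with 10-point 1:3 compound dilutions; 4 days at 37 °C. Viability by CellTiter-Glo luminescence, normalized to rupintrivir and DMSO controls; EC50 by non-linear regression.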
# [2] = test system: Human Rhinovirus 1B (HRV1B); assay: H1-HeLa HRV-CTG 384-well assay, HRV1B, Example X; type: cell-based; settings: Rhinovirus A, 96 h; H1-HeLa cells, HRV1B MOI 0.5, 4 days, Celltiter-Glo; read-out: EC50 H1-HeLa_HRV 1B_HRV-CTG 384-well Assay (per Ex. X)
# Outline: as §1
# [3] = GI S9 stability, rat, Example Y; type: in vitro ADME; settings: pooled intestinal S9 fractions; rat intestinal S9, 1.0 mg/mL protein, 2 μM compound, pH 7.4; read-out: GIS9 Rat T½ (per Ex. Y)
# Protocol: Example Y: GI S9 Stability Data
# Stock solutions of test compounds in dimethyl sulfoxide (DMSO) having a final concentration of 10 mM were prepared and used in all experiments. Sekisui XenoTech (Kansas City, KS) provided pooled intestinal S9 fractions. All other chemicals were purchased from Sigma-Aldrich (St. Louis, MO) or VWR (West Chester, PA). Internal Standard/Quench (IS/Q) used to stop reactions was 100 nM labetalol in (by volume) methanol (10%) and acetonitrile (90%).
# Stability in Intestinal S9 Fractions: Duplicate aliquots of test compound or positive control substrate were added to S9 stock diluted with phosphate buffered saline (137 mM NaCl, 2.7 mM KCl, 10 mM phosphate buffer), pH 7.4, to obtain a protein concentration of 1.0 mg/mL. The metabolic reactions were initiated by the addition of the substrates to the S9 reaction mixture to a final concentration of 2 μM. At 0, 10, 20, 30, 60 and 120 min, 25 μL aliquots of the reaction mixture were transferred to plates containing 225 μl of IS/Q solution. After quenching, the plates were centrifuged at 3000×g for 30 minutes. 150 μL aliquots of each supernatant were dried down then reconstituted with 300 μL water. Aliquots (10 μL) of the prepared samples were analyzed on a Thermo Q-Exactive mass spectrometer as described below.
# Liquid Chromatography—Mass Spectrometry: Quantification of test compounds and control substrate was performed by analyte/internal standard peak area ratio (PAR) values measured on a Thermo Q-Exactive mass spectrometer coupled to a Dionex UltiMate 3000 HPLC with a Leap Technologies HTC PAL autosampler. The column used for analysis was a Waters Acquity BEH C18 (1.7 μm particle size, 2.1×50 mm). Mobile phase A consisted of 0.1% (v/v) formic acid in water. Mobile phase B consisted of 0.1% (v/v) formic acid in acetonitrile. Elution of analytes was achieved by a series of linear gradients varying the proportions of A and B. The mass spectrometer was calibrated on a weekly basis and mass tolerance of 5 ppm was used.
# Metabolic stabilities in S9 fractions were determined by measuring the rates of disappearance of test compound and positive control substrate.
# Data (% of substrate remaining) were plotted on a semi-log scale and fitted using an exponential decline model:
# Ct=C0×e^−ln2/T1/2×t • Where Ct—% of substrate remaining at time=t; C0—% of substrate remaining at time=0; t—time; T1/2—half-life. • The Half-life (T1/2) is determined by the following equation: […]
# Assuming a first-order reaction, the slope (k) is extrapolated from the aforementioned plotted data.
# [4] = test system: Human Rhinovirus 14 (HRV14); assay: H1-HeLa HRV-CTG 384-well assay, HRV14, Example X; type: cell-based; settings: Rhinovirus B, 96 h; H1-HeLa cells, HRV14 MOI 1.0, 4 days, Celltiter-Glo; read-out: EC50 H1-HeLa_HRV 14_HRV-CTG 384-well Assay (per Ex. X)
# Outline: as §1
SMILES,pEC50 [1],pEC50 [2],half-life at 2 μM [3],pEC50 [4]
"N#C[C@]1(COC(=O)O[C@@H]2CCOC2)O[C@@H](c2ccc3c(N)ncnn23)[C@H](O)[C@@H]1O [Compound 24, ((2R,3S,4R,5S)-5-(4-aminopyrrolo[2,1-f][1,2,4]triazin-7-yl)-2-cyano-3,4-dihydroxytetrahydrofuran-2-yl)methyl ((R)-tetrahydrofuran-3-yl) carbonate]",4.85,5.17,47 min,4.99
"CC[C@H](C)COC(=O)OC[C@@]1(C#N)O[C@@H](c2ccc3c(N)ncnn23)[C@H](O)[C@@H]1O [Compound 28, ((2R,3S,4R,5S)-5-(4-aminopyrrolo[2,1-f][1,2,4]triazin-7-yl)-2-cyano-3,4-dihydroxytetrahydrofuran-2-yl)methyl ((S)-2-methylbutyl) carbonate]",5.02,5.45,4 min,5.06
"N#C[C@]1(COC(=O)OCc2ccccc2)O[C@@H](c2ccc3c(N)ncnn23)[C@H](O)[C@@H]1O [Compound 29, ((2R,3S,4R,5S)-5-(4-aminopyrrolo[2,1-f][1,2,4]triazin-7-yl)-2-cyano-3,4-dihydroxytetrahydrofuran-2-yl)methyl benzyl carbonate]",5.01,5.49,3 min,5.09
"N#C[C@]1(COC(=O)OCC2CCCC2)O[C@@H](c2ccc3c(N)ncnn23)[C@H](O)[C@@H]1O [Compound 30, ((2R,3S,4R,5S)-5-(4-aminopyrrolo[2,1-f][1,2,4]triazin-7-yl)-2-cyano-3,4-dihydroxytetrahydrofuran-2-yl)methyl (cyclopentylmethyl) carbonate]",5.05,5.51,3 min,5.25
"CCC(CC)COC(=O)OC[C@@]1(C#N)O[C@@H](c2ccc3c(N)ncnn23)[C@H](O)[C@@H]1O [Compound 31, ((2R,3S,4R,5S)-5-(4-aminopyrrolo[2,1-f][1,2,4]triazin-7-yl)-2-cyano-3,4-dihydroxytetrahydrofuran-2-yl)methyl (2-ethylbutyl) carbonate]",5.04,5.50,3 min,5.12
"N#C[C@]1(COC(=O)OCC2CC2)O[C@@H](c2ccc3c(N)ncnn23)[C@H](O)[C@@H]1O [Compound 32, ((2R,3S,4R,5S)-5-(4-aminopyrrolo[2,1-f][1,2,4]triazin-7-yl)-2-cyano-3,4-dihydroxytetrahydrofuran-2-yl)methyl (cyclopropylmethyl) carbonate]",4.92,5.25,8 min,4.94
"N#C[C@]1(COC(=O)O[C@H]2CCOC2)O[C@@H](c2ccc3c(N)ncnn23)[C@H](O)[C@@H]1O [Compound 33, ((2R,3S,4R,5S)-5-(4-aminopyrrolo[2,1-f][1,2,4]triazin-7-yl)-2-cyano-3,4-dihydroxytetrahydrofuran-2-yl)methyl ((S)-tetrahydrofuran-3-yl) carbonate]",4.73,5.06,58 min,4.81
"CCCOCCOC(=O)OC[C@@]1(C#N)O[C@@H](c2ccc3c(N)ncnn23)[C@H](O)[C@@H]1O [Compound 34, ((2R,3S,4R,5S)-5-(4-aminopyrrolo[2,1-f][1,2,4]triazin-7-yl)-2-cyano-3,4-dihydroxytetrahydrofuran-2-yl)methyl (2-propoxyethyl) carbonate]",4.92,5.14,11 min,4.85
"CC(C)(C)CCOC(=O)OC[C@@]1(C#N)O[C@@H](c2ccc3c(N)ncnn23)[C@H](O)[C@@H]1O [Compound 35, ((2R,3S,4R,5S)-5-(4-aminopyrrolo[2,1-f][1,2,4]triazin-7-yl)-2-cyano-3,4-dihydroxytetrahydrofuran-2-yl)methyl (3,3-dimethylbutyl) carbonate]",4.82,5.06,4 min,4.91
"N#C[C@]1(COC(=O)OC2CC3(CCC3)C2)O[C@@H](c2ccc3c(N)ncnn23)[C@H](O)[C@@H]1O [Compound 36, ((2R,3S,4R,5S)-5-(4-aminopyrrolo[2,1-f][1,2,4]triazin-7-yl)-2-cyano-3,4-dihydroxytetrahydrofuran-2-yl)methyl spiro[3.3]heptan-2-yl carbonate]",4.92,5.23,3 min,4.97
"CC1(C)CC(OC(=O)OC[C@@]2(C#N)O[C@@H](c3ccc4c(N)ncnn34)[C@H](O)[C@@H]2O)C1 [Compound 37, ((2R,3S,4R,5S)-5-(4-aminopyrrolo[2,1-f][1,2,4]triazin-7-yl)-2-cyano-3,4-dihydroxytetrahydrofuran-2-yl)methyl (3,3-dimethylcyclobutyl) carbonate]",4.90,5.17,4 min,4.69
"COC[C@@H](C)OC(=O)OC[C@@]1(C#N)O[C@@H](c2ccc3c(N)ncnn23)[C@H](O)[C@@H]1O [Compound 38, ((2R,3S,4R,5S)-5-(4-aminopyrrolo[2,1-f][1,2,4]triazin-7-yl)-2-cyano-3,4-dihydroxytetrahydrofuran-2-yl)methyl ((R)-1-methoxypropan-2-yl) carbonate]",4.40,4.62,38 min,4.61
"N#C[C@]1(COC(=O)O[C@@H]2C[C@@H]3C[C@@H]3C2)O[C@@H](c2ccc3c(N)ncnn23)[C@H](O)[C@@H]1O [Compound 39, ((2R,3S,4R,5S)-5-(4-aminopyrrolo[2,1-f][1,2,4]triazin-7-yl)-2-cyano-3,4-dihydroxytetrahydrofuran-2-yl)methyl ((1R,3r,5S)-bicyclo[3.1.0]hexan-3-yl) carbonate]",4.66,5.08,7 min,4.93
"C[C@H]1CC[C@H](OC(=O)OC[C@@]2(C#N)O[C@@H](c3ccc4c(N)ncnn34)[C@H](O)[C@@H]2O)CC1 [Compound 40, ((2R,3S,4R,5S)-5-(4-aminopyrrolo[2,1-f][1,2,4]triazin-7-yl)-2-cyano-3,4-dihydroxytetrahydrofuran-2-yl)methyl ((1r,4R)-4-methylcyclohexyl) carbonate]",4.53,5.02,6 min,4.81
